The values that follow come from US20260034252A1, “FIBROBLAST ACTIVATION PROTEIN-TARGETED COMPOSITIONS AND METHODS OF USE THEREOF” (Ratio Therapeutics, Inc., priority 2022, published 2026).

T1 sequence (Q12884 whole entry): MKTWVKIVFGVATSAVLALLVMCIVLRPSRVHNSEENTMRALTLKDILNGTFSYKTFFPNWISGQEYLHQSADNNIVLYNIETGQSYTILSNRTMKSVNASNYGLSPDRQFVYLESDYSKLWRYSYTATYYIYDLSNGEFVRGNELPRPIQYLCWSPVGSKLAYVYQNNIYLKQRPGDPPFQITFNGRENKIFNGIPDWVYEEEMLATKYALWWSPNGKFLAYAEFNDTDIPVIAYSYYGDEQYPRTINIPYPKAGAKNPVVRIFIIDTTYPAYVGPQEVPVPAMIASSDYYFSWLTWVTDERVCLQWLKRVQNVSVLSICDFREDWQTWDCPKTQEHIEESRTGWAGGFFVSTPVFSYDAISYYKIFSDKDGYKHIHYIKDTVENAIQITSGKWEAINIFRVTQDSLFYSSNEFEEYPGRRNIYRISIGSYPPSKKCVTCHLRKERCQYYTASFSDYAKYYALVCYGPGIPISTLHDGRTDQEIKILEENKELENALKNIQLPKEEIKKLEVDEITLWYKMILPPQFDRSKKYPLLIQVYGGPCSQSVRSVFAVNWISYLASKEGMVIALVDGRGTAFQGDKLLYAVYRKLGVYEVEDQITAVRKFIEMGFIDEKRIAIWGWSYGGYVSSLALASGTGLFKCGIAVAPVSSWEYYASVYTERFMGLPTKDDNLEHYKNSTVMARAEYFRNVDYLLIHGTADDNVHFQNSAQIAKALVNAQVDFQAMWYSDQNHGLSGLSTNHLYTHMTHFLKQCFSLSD

One test has as its target T1, FAP (Homo sapiens (Human), UniProt Q12884). The experiment in a line: surface plasmon resonance assay. The format is binding. The following applies: read-out: affinity.
For `CN(CCCN1CCN(C(=O)CN2CCN(CC(=O)O)CCN(CC(=O)O)CCN(CC(=O)O)CC2)CC1)c1ccc2nccc(C(=O)NCC(=O)N3CC(F)(F)C[C@H]3C#N)c2c1` [FAP-46], the Kd was found to be 255 pM.

A further test addresses T1, FAP. The experiment in a line: FAP protease inhibition assay (FAM-labeled substrate peptide, microfluidic electrophoresis). The format is biochemical. Conditions: enzyme 0.5 nM, substrate peptide 1 uM, 15 minutes pre-incubation, three hours for human FAP. The protocol: Protease reactions were assembled in 384 well plates (Greiner) in a total volume of 20 uL as described below.
Recombinant proteins were pre-diluted in assay buffer comprising of 100 mM HEPES, pH 7.5, 0.1% BSA, 0.01% Triton X-100, 1 mM DTT, and dispensed into 384 well plate (10 uL per well). Test compounds were serially pre-diluted in DMSO and added to the assay wells by acoustic dispensing (Labcyte Echo 550). Control samples (0%-inhibition in the absence of inhibitor, DMSO only) and 100%-inhibition (in the absence of enzyme) were assembled in replicates of four and used to calculate the %-inhibition in the presence of compounds. Concentration of DMSO was equalized to 1% in all samples.
Compounds were pre-incubated with enzymes for 15 minutes. Human FAP was obtained from Enzo, catalogue number BML-SE409-0010. […] Final concentration of enzymes were 0.5 nM. Final concentration of substrate peptides was 1 uM.
The reactions were allowed to proceed at room temperature. Incubation time was three hours for human FAP, 0.5 hours for mouse FAP.
Terminated plates were analyzed using a microfluidic electrophoresis instrument (Caliper LabChip® 3000, Caliper Life Sciences/Perkin Elmer). A change in relative intensity of the peptide substrate and cleaved product was the parameter measured. Activity in each test sample was determined as the product to sum ratio (PSR):P/(S+P), where P is the peak height of the product, and S is the peak height of the substrate. Percent inhibition (Pinh) was determined using the following equation: Pinh=(PSR0% inh−PSRcompound)/(PSR0% inh−PSR100% inh)*100, in which: PSRcompound is the product/sum ratio in the presence of compound, PSR0% inh is the product/sum ratio in the absence of compound and the PSR100% inh is the product/sum ratio in the absence of the enzyme.
One may read the IC50 as the concentration that gives 50% inhibition. Low readings indicate higher potency, high ones lower potency. For the molecule “2,2′,2″-(10-(8-(1-((4-((2-((R)-2-boronopyrrolidin-1-yl)-2-oxoethyl)carbamoyl)quinolin-7-yl)oxy)-2-oxo-6,9,12-trioxa-3-azapentadecanamido)-39-carboxy-48-(4-isobutylphenyl)-2,9,37,45-tetraoxo-13,16,19,22,25,28,31,34-octaoxa-3,10,38,44-tetraazaoctatetracontyl)-1,4,7,10-tetraazacyclo-dodecane-1,4,7-triyl)triacetic acid [RTX-1357R]”, the IC50 was below 100 pM. `CCCC(=O)NCCCC[C@H](NC(=O)[C@H](CCCCNC(=S)Nc1ccc(CC2CN(CC(=O)O)CCN(CC(=O)O)CCN2CC(=O)O)cc1)NC(=O)CCOCCOCCOCCNC(=O)COc1ccc2c(C(=O)NCC(=O)N3CCC[C@H]3C#N)ccnc2c1)C(=O)O` (stereo partly shown) [RTX-1317S]: the IC50 lay within 100 to 500 pM. Consider `CCCCCC(=O)NCCCC[C@H](NC(=O)[C@H](CCCCNC(=S)Nc1ccc(CC2CN(CC(=O)O)CCN(CC(=O)O)CCN2CC(=O)O)cc1)NC(=O)CCOCCOCCOCCNC(=O)COc1ccc2c(C(=O)NCC(=O)N3CCC[C@H]3C#N)ccnc2c1)C(=O)O` (stereo partly shown) [RTX-1318S], for which the IC50 was below 100 pM. `CC(=O)NCCCC[C@H](NC(=O)[C@H](CCCCNC(=S)Nc1ccc(CC2CN(CC(=O)O)CCN(CC(=O)O)CCN2CC(=O)O)cc1)NC(=O)CCOCCOCCOCCNC(=O)COc1ccc2c(C(=O)NCC(=O)N3CCC[C@H]3B(O)O)ccnc2c1)C(=O)O` (stereo partly shown) [RTX-1319R] came in with an IC50 of 100 to 500 pM. Still for that read-out and setting: then `CC(=O)NCCCC[C@H](NC(=O)[C@H](CCCCNC(=O)c1ccc(F)c(C#N)c1)NC(=O)CCOCCOCCOCCNC(=O)COc1ccc2c(C(=O)NCC(=O)N3CCC[C@H]3C#N)ccnc2c1)C(=O)O` [RTX-1324S, (S)-2-[(S)-2-(3-{2-[2-(2-{2-[4-({2-[(S)-2-Cyano-1-pyrrolidinyl]-2-oxoethylamino}carbonyl)-7-quinolyloxy]acetylamino}ethoxy)ethoxy]ethoxy}propionylamino)-6-(3-cyano-4-fluorobenzoylamino)hexanoylamino]-6-acetylaminohexanoic Acid], with below 100 pM; and `CC(=O)NCCCC[C@H](NC(=O)[C@H](CCCCNC(=O)c1ccc(F)c(C(F)(F)F)c1)NC(=O)CCOCCOCCOCCNC(=O)COc1ccc2c(C(=O)NCC(=O)N3CCC[C@H]3C#N)ccnc2c1)C(=O)O` [RTX-1325S], with 500 to 5000 pM.

Turning to `COc1ccc2c(C(=O)NCC(=O)N3CCC[C@H]3C#N)ccnc2c1` [RTX-1326S, 7-Methoxy-quinoline-4-carboxylic Acid [2-((S)-2-cyano-pyrrolidin-1-yl)-2-oxo-ethyl]-amide], the IC50 fell in the range of 500 to 5000 pM. The same measure, in the same setting: then `CC(=O)NCCCC[C@H](NC(=O)[C@H](CCCCNC(=O)CN1CCN(CC(=O)O)CCN(CC(=O)O)CC1)NC(=O)CCOCCOCCOCCNC(=O)COc1ccc2c(C(=O)NCC(=O)N3CCC[C@H]3C#N)ccnc2c1)C(=O)O` [RTX-1339S], with 100 to 500 pM; and `CCCC(=O)NCCCC[C@H](NC(=O)[C@H](CCCCNC(=O)CN1CCN(CC(=O)O)CCN(CC(=O)O)CC1)NC(=O)CCOCCOCCOCCNC(=O)COc1ccc2c(C(=O)NCC(=O)N3CCC[C@H]3C#N)ccnc2c1)C(=O)O` [RTX-1340S], with 100 to 500 pM. The molecule `CCCCCCCC(=O)NCCCC[C@H](NC(=O)[C@H](CCCCNC(=O)CN1CCN(CC(=O)O)CCN(CC(=O)O)CCN(CC(=O)O)CC1)NC(=O)CCOCCOCCOCCNC(=O)COc1ccc2c(C(=O)NCC(=O)N3CCC[C@H]3C#N)ccnc2c1)C(=O)O` [RTX-1350S] showed an IC50 below 100 pM. As for `CC(C)Cc1ccc(CCCC(=O)NCCCC[C@H](NC(=O)[C@H](CCCCNC(=O)CN2CCN(CC(=O)O)CCN(CC(=O)O)CCN(CC(=O)O)CC2)NC(=O)CCOCCOCCOCCNC(=O)COc2ccc3c(C(=O)NCC(=O)N4CCC[C@H]4C#N)ccnc3c2)C(=O)O)cc1` [RTX-1352S], the IC50 is below 100 pM. In the case of `CC(=O)NCCCC[C@H](NC(=O)[C@H](CCCCNC(=O)CN1CCN(CC(=O)O)CCN(CC(=O)O)CCN(CC(=O)O)CC1)NC(=O)CCOCCOCCOCCNC(=O)COc1ccc2c(C(=O)NCC(=O)N3CCC[C@H]3C#N)ccnc2c1)C(=O)O` [RTX-1353S], the IC50 was 100 to 500 pM. On to `CC(C)Cc1ccc(CC(=O)NCCCC[C@H](NC(=O)[C@H](CCCCNC(=O)CN2CCN(CC(=O)O)CCN(CC(=O)O)CCN(CC(=O)O)CC2)NC(=O)CCOCCOCCOCCNC(=O)COc2ccc3c(C(=O)NCC(=O)N4CCC[C@H]4C#N)ccnc3c2)C(=O)O)cc1` [RTX-1354S], for which the IC50 was below 100 pM.

As for `CCCCCCCC(=O)NCCCC[C@H](NC(=O)[C@H](CCCCNC(=O)CN1CCN(CC(=O)O)CCN(CC(=O)O)CCN(CC(=O)O)CC1)NC(=O)CCOCCOCCOCCNC(=O)COc1ccc2c(C(=O)NCC(=O)N3CCC[C@H]3B(O)O)ccnc2c1)C(=O)O` [RTX-1355R], the IC50 lay in the range of 100 to 500 pM. Molecule `CC(C)Cc1ccc(CCCC(=O)NCCCC[C@H](NC(=O)[C@H](CCCCNC(=O)CN2CCN(CC(=O)O)CCN(CC(=O)O)CCN(CC(=O)O)CC2)NC(=O)CCOCCOCCOCCNC(=O)COc2ccc3c(C(=O)NCC(=O)N4CCC[C@H]4B(O)O)ccnc3c2)C(=O)O)cc1` [RTX-1356R] yielded an IC50 of 100 to 500 pM. The same measure, in the same setting: as for `CC(C)Cc1ccc(CC(=O)NCCCC[C@H](NC(=O)[C@H](CCCCNC(=O)CN2CCN(CC(=O)O)CCN(CC(=O)O)CCN(CC(=O)O)CC2)NC(=O)CCOCCOCCOCCNC(=O)COc2ccc3c(C(=O)NCC(=O)N4CCC[C@H]4B(O)O)ccnc3c2)C(=O)O)cc1` [RTX-1359R, 2-[2-(3-{2-[2-(2-{2-[4-({2-[(R)-2-(1,2-dihydroxaboro)-1-pyrrolidinyl]-2-oxoethylamino}-carbonyl)-7-quinolyloxy]acetylamino}ethoxy)ethoxy]ethoxy}propionylamino)-6-{2-[4,7,10-tris(carb-oxymethyl)-1,4,7,10-tetraaza-1-cyclododecyl]acetylamino}hexanoylamino]-6-[2-(p-isobutylphenyl)-acetylamino]hexanoic Acid], the figure is below 100 pM. In turn, `CCCCCC(=O)NCCCC[C@H](NC(=O)[C@H](CCCCNC(=O)CN1CCN(CC(=O)O)CCN(CC(=O)O)CCN(CC(=O)O)CC1)NC(=O)CCOCCOCCOCCNC(=O)COc1ccc2c(C(=O)NCC(=O)N3CCC[C@H]3C#N)ccnc2c1)C(=O)O` [RTX-1360S] showed an IC50 below 100 pM. `CCCCCC(=O)NCCCC[C@H](NC(=O)[C@H](CCCCNC(=O)CN1CCN(CC(=O)O)CCN(CC(=O)O)CCN(CC(=O)O)CC1)NC(=O)CCOCCOCCOCCNC(=O)COc1ccc2c(C(=O)NCC(=O)N3CCC[C@H]3B(O)O)ccnc2c1)C(=O)O` [RTX-1361R]: the IC50 is below 100 pM.

Regarding `CCCCCC(=O)NCCCC[C@H](NC(=O)[C@H](CCCCNC(=O)CN1CCN(CC(=O)O)CCN(CC(=O)O)CC1)NC(=O)CCOCCOCCOCCNC(=O)COc1ccc2c(C(=O)NCC(=O)N3CCC[C@H]3C#N)ccnc2c1)C(=O)O` [RTX-1363S, 2,2′-(7-((S)-17-(((S)-1-carboxy-5-hexanamidopentyl)carbamoyl)-1-((4-((2-((S)-2-cyanopyrrolidin-1-yl)-2-oxoethyl)carbamoyl)quinolin-7-yl)oxy)-2,15,23-trioxo-6,9,12-trioxa-3,16,22-triazatetracosan-24-yl)-1,4,7-triazonane-1,4-diyl)diacetic Acid], the IC50 was below 100 pM. Molecule `CCCCCC(=O)NCCCC[C@H](NC(=O)[C@H](CCCCNC(=O)CN1CCN2CCN(CC1)CC(=O)[O][Cu][O]C(=O)C2)NC(=O)CCOCCOCCOCCNC(=O)COc1ccc2c(C(=O)NCC(=O)N3CCC[C@H]3C#N)ccnc2c1)C(=O)O` [RTX-1363S-Cu] had an IC50 below 100 pM. Still for that read-out and setting: as for `CC(C)Cc1ccc(CC(=O)NCCCC[C@H](NC(=O)[C@H](CCCCNC(=S)Nc2ccc(CCOc3cc(CN4CCOCCOCCN(Cc5cccc(C(=O)O)n5)CCOCCOCC4)nc(C(=O)O)c3)cc2)NC(=O)CCOCCOCCOCCNC(=O)COc2ccc3c(C(=O)NCC(=O)N4CCC[C@H]4B(O)O)ccnc3c2)C(=O)O)cc1` [RTX-1399R, 4-(4-(3-((S)-1-((4-((2-((R)-2-boronopyrrolidin-1-yl)-2-oxoethyl)carbamoyl)quinolin-7-yl)oxy)-17-(((S)-1-carboxy-5-(2-(4-isobutylphenyl)acetamido)pentyl)carbamoyl)-2,15-dioxo-6,9,12-trioxa-3,16-diazahenicosan-21-yl)thioureido)phenethoxy)-6-((16-((6-carboxypyridin-2-yl)methyl)-1,4,10,13-tetraoxa-7,16-diazacyclooctadecan-7-yl)methyl)picolinic acid], the figure is 100 to 500 pM.
